Earlier results in patent publication US11844805B2, “Formulations of testosterone and methods of treatment therewith” (BOARD OF REGENTS, THE UNIVERSITY OF TEXAS SYSTEM, priority 2014, dated 2023).

Key:
[1] = intranasal administration; baseline mean 2.5 pmol/L
[2] = women, single dose, sublingual

**Q.** With `C[C@]12CC[C@H]3[C@@H](CCC4=CC(=O)CC[C@@]43C)[C@@H]1CC[C@@H]2O` [testosterone] as the compound, how does the “maximum testosterone concentration (mean)” value [1] read?
**A.** The value was 168.2 pmol/L.

**Q.** And the “effect on subjective sexual desire, genital responsiveness and genital arousal” value [2]?
**A.** Its value is “increase subjective sexual desire, genital responsiveness, and genital arousal”.
